Key:
[1] = molecular target: Protein kinase C delta type (Mus musculus, UniProt P28867); assay: Displacement of [3H]- PDBu from Protein kinase C delta C1b domain
[2] = molecular target: T1, RAS guanyl-releasing protein 1 (Rattus norvegicus, UniProt Q9R1K8); assay: Binding affinity against RAS guanyl releasing protein using [3H]- PDBu as the labeled ligand
T1 sequence (Q9R1K8 whole entry): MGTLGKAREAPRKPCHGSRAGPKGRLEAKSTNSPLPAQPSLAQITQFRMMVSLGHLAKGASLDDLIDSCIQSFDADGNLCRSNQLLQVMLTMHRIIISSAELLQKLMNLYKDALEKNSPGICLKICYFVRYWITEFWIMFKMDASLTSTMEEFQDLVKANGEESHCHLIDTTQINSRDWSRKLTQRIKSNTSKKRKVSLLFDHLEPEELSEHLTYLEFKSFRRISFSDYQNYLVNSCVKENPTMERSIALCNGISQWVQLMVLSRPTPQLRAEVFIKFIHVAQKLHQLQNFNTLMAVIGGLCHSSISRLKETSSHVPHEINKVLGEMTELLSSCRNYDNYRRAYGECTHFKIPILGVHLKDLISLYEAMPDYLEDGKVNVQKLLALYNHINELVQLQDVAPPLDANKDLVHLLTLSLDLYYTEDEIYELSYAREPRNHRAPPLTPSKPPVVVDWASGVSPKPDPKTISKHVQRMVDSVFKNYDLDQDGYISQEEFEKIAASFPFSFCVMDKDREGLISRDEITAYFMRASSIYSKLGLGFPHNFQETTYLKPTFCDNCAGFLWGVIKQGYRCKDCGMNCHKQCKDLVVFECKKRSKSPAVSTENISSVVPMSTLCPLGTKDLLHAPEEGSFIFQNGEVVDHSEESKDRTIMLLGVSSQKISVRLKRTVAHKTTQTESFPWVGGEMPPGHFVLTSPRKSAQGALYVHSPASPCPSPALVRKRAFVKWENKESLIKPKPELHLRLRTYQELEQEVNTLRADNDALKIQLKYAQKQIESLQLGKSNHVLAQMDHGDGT

Chain of Protein kinase C delta type (P28867 whole entry, the tested form may be a part): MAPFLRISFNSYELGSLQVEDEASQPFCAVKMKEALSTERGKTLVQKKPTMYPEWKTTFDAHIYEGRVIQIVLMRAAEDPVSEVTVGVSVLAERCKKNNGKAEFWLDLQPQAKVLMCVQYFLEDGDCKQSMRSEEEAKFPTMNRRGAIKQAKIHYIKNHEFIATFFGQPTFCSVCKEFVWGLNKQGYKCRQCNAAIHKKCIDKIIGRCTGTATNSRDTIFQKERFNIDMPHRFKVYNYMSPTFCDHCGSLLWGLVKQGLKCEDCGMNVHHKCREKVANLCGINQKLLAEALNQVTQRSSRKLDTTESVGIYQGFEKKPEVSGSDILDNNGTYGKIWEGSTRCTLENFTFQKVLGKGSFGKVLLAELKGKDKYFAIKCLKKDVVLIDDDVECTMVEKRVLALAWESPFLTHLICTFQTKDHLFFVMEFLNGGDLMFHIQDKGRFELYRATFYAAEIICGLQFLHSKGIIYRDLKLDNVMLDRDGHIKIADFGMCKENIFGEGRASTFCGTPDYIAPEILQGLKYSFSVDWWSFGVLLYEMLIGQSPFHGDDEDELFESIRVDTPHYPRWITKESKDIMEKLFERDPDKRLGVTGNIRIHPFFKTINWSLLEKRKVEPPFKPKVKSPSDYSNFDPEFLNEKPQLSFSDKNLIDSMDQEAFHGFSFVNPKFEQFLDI

SMILES | Ki [1] [nM] | Ki [2] [nM]
CCCCCCCCC#Cc1ccc2c(c1)C[C@@H](CO)NC(=O)[C@H](C(C)C)N2C | 10.7 | 6.15
CCCCCCCCC#Cc1ccc2c(c1OC)C[C@@H](CO)NC(=O)[C@H](C(C)C)N2C | 35.1 | 13.9
CCCCCCCCc1ccc2c3c(c[nH]c13)C[C@@H](CO)NC(=O)[C@H](C(C)C)N2C | 0.1 | 0.85
CC(C)[C@H]1C(=O)N[C@H](CO)Cc2c[nH]c3cccc(c23)N1C [INDOLACTUM] | – | 2.54
